Values quoted from earlier work in EP3808777A1, “STABLE LIQUID ANTIBODY FORMULATIONS” (Glenmark Specialty S.A., priority 2019, dated 2021).

Row | SMILES | effective buffering range (pH range) | pKa values
1 | N[C@@H](Cc1c[nH]cn1)C(=O)O [L-hisitidine] | 5.5-7.4 | 
2 | N=C(N)NCCC[C@H](N)C(=O)O [Arginine] |  | 1.82
3 | NCCCC[C@H](N)C(=O)O [Lysine] |  | 9.06
